According to patent US6994956B2, “Method for assaying enzyme activity” (Bayer Pharmaceuticals Corporation, priority 2003, dated 2006):

Assays:
[1] = biological target: fatty acid synthase (FAS) (Homo sapiens, UniProt P49327); assay: Phase partition assay of fatty acid synthase activity; assay type: biochemical; settings: FAS (35 ng), incubated for 90 minutes, conditions of FIG. 1
Procedure: FAS was incubated at varying concentrations and times at room temperature with 400 μM NADPH, 100 μM acetyl-CoA, and 20 μM malonyl-CoA (0.02 μCi [malonyl-2-^14C]-CoA) in buffer containing 50 mM MOPS (pH 6.8), 5 mM DTT, 1 mM EDTA, and 0.03% BSA in a total volume of 100 μL. The reaction was terminated by the addition of 10 μL of 10 N acetic acid, followed by the addition of 150 μL Microscint™-CAT. The mix was allowed to incubate overnight prior to data acquisition.
Inhibition of FAS by cerulenin. FAS (35 ng) was incubated for 90 minutes with cerulenin under conditions described in FIG. 1.
This method of the present invention permits radiometric detection of FAS activity via a gain of signal assay using [2-^14C]malonyl CoA as the radiolabel and partitioning of the radioactive products (^14C-labeled oleic acid and palmitic acid) into the PPSF (Microscint™-E), following acidification and addition of PPSF to the reaction mixture.
A typical 96-well density reaction is partitioned in the following manner: an enzyme assay inhibitor test mix (100 μL) containing enzyme, substrates, test compounds, and buffer components is incubated at room temperature to generate the fatty acid products. […] Enzyme activity is proportional to the radioactivity in the organic phase as determined by liquid scintillation counting. […]

[2] = biological target: farnesyl-diphosphate synthase (FPPS) (Homo sapiens, UniProt P14324); settings: FPPS (25 ng), incubated for 2 hours, conditions of FIG. 4
farnesyl-diphosphate synthase (FPPS), sequence (P14324 whole entry): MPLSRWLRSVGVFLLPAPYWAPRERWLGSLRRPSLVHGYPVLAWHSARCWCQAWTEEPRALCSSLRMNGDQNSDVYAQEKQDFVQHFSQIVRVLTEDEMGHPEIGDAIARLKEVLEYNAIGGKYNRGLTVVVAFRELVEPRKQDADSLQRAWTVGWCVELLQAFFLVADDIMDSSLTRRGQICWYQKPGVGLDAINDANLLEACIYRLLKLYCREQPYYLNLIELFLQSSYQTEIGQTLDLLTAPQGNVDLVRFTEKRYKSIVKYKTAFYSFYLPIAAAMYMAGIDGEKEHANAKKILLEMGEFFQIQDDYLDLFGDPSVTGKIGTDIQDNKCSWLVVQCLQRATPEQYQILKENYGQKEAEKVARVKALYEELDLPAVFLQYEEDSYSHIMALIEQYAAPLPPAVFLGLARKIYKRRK
Procedure: Time course and protein dependence of farnesyl-diphosphate synthase (FPPS)-produced product partitioning into the organic phase. FPPS was incubated at varying concentrations and times at room temperature with 5 μM geranyl pyrophosphate (GPP) and 5 μM IPP (0.0125 μCi; [1-^14C]isopentenyl pyrophosphate) in a buffer containing 25 mM HEPES (pH 7.5), 1 mM DTT, and 1 mM MgCl2 in a total volume of 40 μL. The reaction was terminated by the addition of 10 μL of 5% phosphoric acid, followed by 50 μL Microscint™-CAT. The mix was allowed to incubate two hours prior to data acquisition. […]
A typical 384-well density reaction is partitioned with the following proportion of reagents: 40 μL enzyme assay inhibitor test mix containing FPP synthetase, substrates, test compounds, and buffer components is incubated at room temperature to generate farnesyl diphosphate. […] Enzyme activity is proportional to the radioactivity in the organic phase as determined by liquid scintillation counting (LSC). This radioactivity corresponds to products of acid treatment of the enzyme reaction, farnesol and nerolidol, as determined by LSC of authentic [1,2-^14C]trans, trans farnesol. […] The theoretical signal to background of the assay is established by comparing CPMs in the PPSF using equimolar amounts and equal amounts of radioactivity of radiolabeled substrate and product. […]

fatty acid synthase (FAS), sequence (P49327 whole entry, species assumed): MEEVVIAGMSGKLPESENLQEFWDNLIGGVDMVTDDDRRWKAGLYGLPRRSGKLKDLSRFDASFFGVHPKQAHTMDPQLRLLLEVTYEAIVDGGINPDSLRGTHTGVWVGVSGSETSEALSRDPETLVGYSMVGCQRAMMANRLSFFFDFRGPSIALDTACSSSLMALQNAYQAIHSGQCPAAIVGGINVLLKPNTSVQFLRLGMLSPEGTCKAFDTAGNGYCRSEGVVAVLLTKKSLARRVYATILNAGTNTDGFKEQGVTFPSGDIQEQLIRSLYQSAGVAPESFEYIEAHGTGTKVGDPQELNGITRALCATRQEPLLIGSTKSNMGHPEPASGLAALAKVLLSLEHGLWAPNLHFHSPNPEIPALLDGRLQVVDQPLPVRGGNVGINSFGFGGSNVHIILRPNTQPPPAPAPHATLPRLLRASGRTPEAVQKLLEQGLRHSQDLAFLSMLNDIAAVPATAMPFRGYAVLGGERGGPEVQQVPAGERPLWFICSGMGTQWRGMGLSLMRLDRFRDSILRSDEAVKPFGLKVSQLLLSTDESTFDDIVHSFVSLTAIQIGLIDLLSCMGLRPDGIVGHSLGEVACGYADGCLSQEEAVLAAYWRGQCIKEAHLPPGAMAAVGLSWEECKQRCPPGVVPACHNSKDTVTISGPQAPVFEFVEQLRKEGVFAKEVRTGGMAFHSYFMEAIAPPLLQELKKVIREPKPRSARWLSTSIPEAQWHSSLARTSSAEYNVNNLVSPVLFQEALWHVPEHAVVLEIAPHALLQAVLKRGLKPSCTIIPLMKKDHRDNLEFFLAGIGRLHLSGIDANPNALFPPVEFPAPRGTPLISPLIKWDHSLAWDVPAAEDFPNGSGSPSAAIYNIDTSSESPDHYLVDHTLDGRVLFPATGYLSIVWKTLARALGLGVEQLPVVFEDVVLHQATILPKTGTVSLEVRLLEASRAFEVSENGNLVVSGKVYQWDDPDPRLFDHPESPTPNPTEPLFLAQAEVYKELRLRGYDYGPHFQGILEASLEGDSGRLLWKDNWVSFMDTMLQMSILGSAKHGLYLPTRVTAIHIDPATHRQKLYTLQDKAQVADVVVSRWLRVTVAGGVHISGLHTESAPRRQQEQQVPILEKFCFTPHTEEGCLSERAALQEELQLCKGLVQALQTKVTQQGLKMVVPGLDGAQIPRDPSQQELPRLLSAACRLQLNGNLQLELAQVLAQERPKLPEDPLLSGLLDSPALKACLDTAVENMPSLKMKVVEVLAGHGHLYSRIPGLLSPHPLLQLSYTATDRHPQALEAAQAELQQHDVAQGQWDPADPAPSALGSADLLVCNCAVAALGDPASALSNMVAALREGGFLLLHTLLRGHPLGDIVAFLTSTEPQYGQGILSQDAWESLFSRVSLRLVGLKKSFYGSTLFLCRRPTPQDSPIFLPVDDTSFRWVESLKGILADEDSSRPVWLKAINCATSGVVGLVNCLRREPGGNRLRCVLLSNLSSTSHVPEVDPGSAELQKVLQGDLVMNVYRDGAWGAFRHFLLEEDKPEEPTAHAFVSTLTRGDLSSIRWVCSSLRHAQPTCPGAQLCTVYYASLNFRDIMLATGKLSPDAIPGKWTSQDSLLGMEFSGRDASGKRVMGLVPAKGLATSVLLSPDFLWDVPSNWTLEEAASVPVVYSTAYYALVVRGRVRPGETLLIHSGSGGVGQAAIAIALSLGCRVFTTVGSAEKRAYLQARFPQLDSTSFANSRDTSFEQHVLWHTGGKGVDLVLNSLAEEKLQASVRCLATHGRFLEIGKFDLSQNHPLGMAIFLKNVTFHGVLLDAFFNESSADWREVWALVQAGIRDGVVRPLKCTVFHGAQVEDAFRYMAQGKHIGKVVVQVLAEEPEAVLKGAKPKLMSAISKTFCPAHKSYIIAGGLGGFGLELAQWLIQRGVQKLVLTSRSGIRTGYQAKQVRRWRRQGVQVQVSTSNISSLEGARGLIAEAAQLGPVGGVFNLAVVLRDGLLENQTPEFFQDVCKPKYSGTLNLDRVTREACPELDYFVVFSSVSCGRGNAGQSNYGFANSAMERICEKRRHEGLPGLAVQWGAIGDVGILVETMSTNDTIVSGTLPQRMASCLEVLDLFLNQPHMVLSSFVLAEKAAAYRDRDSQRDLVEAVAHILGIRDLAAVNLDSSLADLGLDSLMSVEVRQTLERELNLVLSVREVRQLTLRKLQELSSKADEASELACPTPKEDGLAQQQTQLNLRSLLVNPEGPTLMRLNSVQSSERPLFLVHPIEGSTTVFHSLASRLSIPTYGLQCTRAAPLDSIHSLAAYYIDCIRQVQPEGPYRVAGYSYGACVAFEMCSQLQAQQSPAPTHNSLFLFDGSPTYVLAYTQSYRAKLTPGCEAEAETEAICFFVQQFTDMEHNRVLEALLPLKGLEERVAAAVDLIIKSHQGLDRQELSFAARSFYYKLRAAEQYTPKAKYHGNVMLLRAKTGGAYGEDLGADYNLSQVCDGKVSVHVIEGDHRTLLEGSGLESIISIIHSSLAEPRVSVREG

Row | Inhibition of FAS [1] | Inhibition of FPPS [2] | SMILES
1 | Inhibition |  | C/C=C/C/C=C/CCC(=O)[C@H]1O[C@H]1C(N)=O [cerulenin]
2 |  | Inhibition | NCCCC(O)(P(=O)(O)O)P(=O)(O)O [alendronate]
